The values below come from patent publication US20170251707A1, “PROCESS FOR THE PRODUCTION OF LOW COLORIE SWEETENER COMPOSITIONS AND USES THEREOF” (priority 2016, published 2017).

For data set [1] the following is noted: cited from earlier work.
The conditions of data set [2]: cited from earlier work. This is another data set of the same source.
For data set [3] the following is noted: cited from earlier work. This is another data set of the same source.
For data set [4] the following is noted: healthy and type 2 diabetic subjects, sucrose with 4% added L-Arabinose; cited from earlier work.
The test system of the next data set is intestinal sucrase. To be noted: porcine intestinal mucosa, in vitro; cited from earlier work.
For data set [5] the following is noted: acute (test meal) and sub chronic (twice a day for 9 week), after sucrose feeding; cited from earlier work.
For data set [6] the following is noted: cited from earlier work. The source holds these as a separate data set.
The conditions of data set [7]: rats, HCHF diet; cited from earlier work.
For data set [8] the following is noted: humans, after six months; cited from earlier work.
The conditions of data set [9]: alone or in combination with fructose, compared with glucose alone; cited from earlier work.
For data set [10] the following is noted: HFD-fed mice; cited from earlier work.
For data set [11] the following is noted: pre-exercise ingestion; cited from earlier work.
The conditions of data set [12]: blood plasma testing; cited from earlier work.
The conditions of data set [13]: continuous intravenous, 1 g/kg body weight, human subjects; cited from earlier work.
A short description of data set [14]: In vivo study: test beverage, postprandial glucose and insulin responses. To be noted: versus 25 g sucrose control, p=0.0001. Further details: species or system people. As for the experimental part: FIGS. 3 and 4 represent the outcome of an in vivo study performed using 15 previously selected people. Selected subjects arrived at the labs between 8 am and 9:45 am, and the start time for each subject was kept as similar as possible. After being weighed, 2 fasting blood samples at 5 min intervals were collected; subjects started to consume a test beverage (sweetener mixed with water) which was consumed in its entirety within 5 min. A timer was started at the first sip of the beverage, and further capillary blood samples were obtained at t=15, 30, 45, 60, 90 and 120±2 min, for the determination of glucose and insulin concentrations. Blood samples were collected into 2 separate vials: one (2-3 drops blood) for glucose analysis and the other (8-10 drops of blood) for insulin. Before and during the test, a blood glucose test record was filled out with the subject's initials, ID number, date, body weight, test meal, time of starting to eat, time it took to eat, time and composition of last meal, and any unusual activities. At the beginning and end, participants were asked to fill out a symptom questionnaire. During the 2 hours of the test, participants remain seated quietly. After the last blood sample was obtained participants were offered a snack and allowed to leave. […]

Setting [15] is: sucrose in combination with L-Arabinose versus sucrose.
Where [16] appears, read: oral 15, 35 or 75 g in 250 ml, versus water alone.

Where two headings read alike, the source gives them in different places.

In the case of `O=C[C@H](O)[C@@H](O)[C@H](O)[C@H](O)CO` [D-glucose, reference compound], the “reduction in blood glucose levels” value in data set [1] (after 180 minute) was 20%. For the same compound, the “increment / elevation of blood glucose levels” value in data set [1] (healthy human subjects) is given as 52%. In data set [2] (oral 15 or 75 g in 250 ml), the “incremental area under the glucose response curve (AUC)” value is listed as “significant dose-dependent increase” and the “incremental area under the insulin response curve (AUC)” value is reported as “significant dose-dependent increase”.
For `OC[C@@H](O)[C@@H](O)CO` [Erythritol, (2R,3S)-butane-1,2,3,4-tetraol], the excretion entry in [3] (human metabolism, for the most part) was “excreted unchanged in the urine”. The absorption entry in data set [3] (human metabolism) is given as “absorbed into the bloodstream in the small intestine”. For the same compound, in data set [3] (in vivo), the “increases in blood sugar levels” value is given as “does not induce increases”, the laxative effects entry is “does not normally cause laxative effects” and the tooth decay entry is “does not cause”. Also, in data set [3] (unlike other sugar alcohols), the gastric side effects entry is reported as “unlikely to cause”.
As for `O=C[C@H](O)[C@@H](O)[C@@H](O)CO` [L-Arabinose], in [4], the “increases in plasma glucose” value was “reduced” and the “increases in serum insulin” value is listed as “reduced”. In the data set on intestinal sucrase, the “effect on intestinal sucrase activity” value was “inhibitory effect”. The blood glucose result in data set [5] is listed as “suppressed”. Besides, the liver triacylglycerol concentrations entry in [6] (rats fed with sucrose, additional feeding of L-Arabinose) was “prevented this increase”. Further, in data set [6] (setting [15]), the blood glucose response entry is “suppressed” and the insulin response entry is “suppressed”. In addition, in data set [7], the “body weight, lee's index, visceral index” value is “lower”; the “dyslipidemia, insulin resistance, inflammation, and viscera function” value is “improve”. Also, in data set [8], the diastolic blood pressure result is “slightly decreased”; the high-density lipoprotein cholesterol result is reported as “slightly increased”; the “waist circumference, total cholesterol, fasting glucose, serum uric acid, low-density lipoprotein cholesterol” value is “decreased”.
On to `OC[C@H]1O[C@H](O[C@H]2O[C@H](CO)[C@@H](O)[C@H](O)[C@H]2O)[C@H](O)[C@@H](O)[C@@H]1O` [Trehalose], for which, in [9], the glycemic response result is on record as “lower” and the insulinemic response entry is “lower”. Moreover, in data set [10], the adipocyte hypertrophy entry is reported as “prevents” and the insulin resistance entry is reported as “mitigates”. Moreover, in data set [11], the “insulin response prior to exercise” value is “lower”, the “plasma glucose response prior to exercise” value is “lower” and the “prevalence of rebound hypoglycemia” value is recorded as “reduced”. The “influence on blood glucose levels” value in data set [12] is given as “almost flat response”.
As for `O=C[C@H](O)[C@@H](O)[C@@H](O)[C@H](O)CO` [galactose, reference compound], in data set [11], the “insulin response prior to exercise” value is “lower”, the “plasma glucose response prior to exercise” value is given as “lower” and the “prevalence of rebound hypoglycemia” value was “reduced”.
`OCC(O)CO` [glycerol]: the serum insulin concentration entry in data set [13] is “did not result in an increased”. In data set [2] (setting [16]), the insulin response result is reported as “did not differ significantly from those after water alone” and the plasma glucose response result is listed as “did not differ significantly from those after water alone”.
As to `OC[C@H]1O[C@H](O[C@]2(CCl)O[C@H](CCl)[C@@H](O)[C@@H]2O)[C@H](O)[C@@H](O)[C@H]1Cl` [sucralose], the “postprandial insulin responses (FIG. 5)” value in data set [14] is recorded as “significantly lower than sucrose”.
